The assay concerns the target T1, LSD1 (Homo sapiens, UniProt O60341).
T1 construct: endogenous in cells; host or cells: Embryoid bodies formed from control human iPSC line CTR1R-C3
Nature of the assay: Embryoid body formation assay with LSD1 inhibitor treatment, RT-qPCR of GTF2I target genes. Type of assay: cell-based. To be noted: control iPSC line, treatment for 5 days at day 0 and day 4, final concentration 5 uM (Oryzon), 10 uM (DDP26095). On the procedure:
Retrotranscribed cDNAs have been obtained from 1 μg of total DNA-depleted RNA using the superscript VILO retrotranscription kit from Life Technologies according to manufacturer instructions.
For real time q-PCR analysis a total amount of cDNA corresponding to 10-50 ng of starting RNA has been used for each reaction. FAST SYBR green master mix from Life Technologies and 10 μM primers pair have been used.
10 uM RA has been added at day 0 or at day 4. At day 1 EBs have been plated on a low attachment dish and media was replaced with KO-DMEM (+P/S+Glut)(EB media) 20% FBS containing. […] Next, RNA extraction and cDNA preparation has been performed as described above.
A general note: In qPCR the cycle at which signal appears reflects the starting amount.

Where a name gives a salt, the structure may show the parent alone.

Regarding `Cl.N[C@H]1CC[C@H](N[C@@H]2C[C@H]2c2ccccc2)CC1` [Oryzon, (trans)-N1-((1R,2S)-2-phenylcyclopropyl)cyclohexane-1,4-diamine hydrochloride], the “BEND4 mRNA level (RT-qPCR, percentage of GAPDH) upon irreversible LSD1 inhibition” value is “increased”.

As for `N[C@@H]1C[C@H]1c1ccc(NC(=O)c2cccc(N3CCOC3=O)c2)cc1` (relative stereo) [DDP26095, N-[4-[trans-2-aminocyclopropyl]phenyl]-3-(2-oxooxazolidin-3-yl)benzamide hydrochloride], the “BEND4 mRNA level (RT-qPCR, percentage of GAPDH) upon irreversible LSD1 inhibition” value is “increased”.

Source of the values: US11369577B2, “Reprogramming-based models of neurodevelopmental disorders and uses thereof” (IEO—Istituto Europeo di Oncologia S.r.l., priority 2014, dated 2022).
